In the NIST ThermoML archive (doi:10.1016/j.jct.2012.03.031):

Test: molar heat capacity at constant pressure
Conditions: 101.33 kPa

CCCCc1ccc(C(=O)Oc2ccc(C#N)c(F)c2)cc1 [4-cyano-3-fluorophenyl 4-butylbenzoate]
Conditions | molar heat capacity at constant pressure [J/K/mol]
4.918 K, Crystal 1, Small (less than 1 g) adiabatic calorimetry | 1.032
5 K, Crystal 1, Vacuum adiabatic calorimetry | 1.08
5 K, Crystal 2, Vacuum adiabatic calorimetry | 1.44
5.052 K, Crystal 2, Small (less than 1 g) adiabatic calorimetry | 1.482
5.07 K, Crystal 1, Small (less than 1 g) adiabatic calorimetry | 1.127
5.575 K, Crystal 1, Small (less than 1 g) adiabatic calorimetry | 1.448
5.722 K, Crystal 2, Small (less than 1 g) adiabatic calorimetry | 2.06
5.747 K, Crystal 1, Small (less than 1 g) adiabatic calorimetry | 1.591
6.284 K, Crystal 1, Small (less than 1 g) adiabatic calorimetry | 2.011
6.538 K, Crystal 2, Small (less than 1 g) adiabatic calorimetry | 2.901
6.573 K, Crystal 1, Small (less than 1 g) adiabatic calorimetry | 2.293
7.108 K, Crystal 1, Small (less than 1 g) adiabatic calorimetry | 2.802
7.413 K, Crystal 2, Small (less than 1 g) adiabatic calorimetry | 3.946
7.456 K, Crystal 1, Small (less than 1 g) adiabatic calorimetry | 3.2
8.006 K, Crystal 1, Small (less than 1 g) adiabatic calorimetry | 3.815
8.284 K, Crystal 2, Small (less than 1 g) adiabatic calorimetry | 5.139
8.384 K, Crystal 1, Small (less than 1 g) adiabatic calorimetry | 4.319
8.948 K, Crystal 1, Small (less than 1 g) adiabatic calorimetry | 5.034
9.21 K, Crystal 2, Small (less than 1 g) adiabatic calorimetry | 6.549
9.353 K, Crystal 1, Small (less than 1 g) adiabatic calorimetry | 5.638
9.931 K, Crystal 1, Small (less than 1 g) adiabatic calorimetry | 6.451
10 K, Crystal 1, Vacuum adiabatic calorimetry | 6.56
10 K, Crystal 2, Vacuum adiabatic calorimetry | 7.87
10.23 K, Crystal 2, Small (less than 1 g) adiabatic calorimetry | 8.254
10.31 K, Crystal 1, Small (less than 1 g) adiabatic calorimetry | 7.064
10.88 K, Crystal 1, Small (less than 1 g) adiabatic calorimetry | 7.93
11.24 K, Crystal 2, Small (less than 1 g) adiabatic calorimetry | 10.07
11.26 K, Crystal 1, Small (less than 1 g) adiabatic calorimetry | 8.608
11.81 K, Crystal 1, Small (less than 1 g) adiabatic calorimetry | 9.492
12.23 K, Crystal 1, Small (less than 1 g) adiabatic calorimetry | 10.25
12.28 K, Crystal 2, Small (less than 1 g) adiabatic calorimetry | 12.04
12.81 K, Crystal 1, Small (less than 1 g) adiabatic calorimetry | 11.22
13.24 K, Crystal 1, Small (less than 1 g) adiabatic calorimetry | 12.07
13.39 K, Crystal 2, Small (less than 1 g) adiabatic calorimetry | 14.28
13.89 K, Crystal 1, Small (less than 1 g) adiabatic calorimetry | 13.26
14.32 K, Crystal 1, Small (less than 1 g) adiabatic calorimetry | 14.11
14.71 K, Crystal 2, Small (less than 1 g) adiabatic calorimetry | 17
15.07 K, Crystal 1, Small (less than 1 g) adiabatic calorimetry | 15.49
15.47 K, Crystal 1, Small (less than 1 g) adiabatic calorimetry | 16.32
16.2 K, Crystal 2, Small (less than 1 g) adiabatic calorimetry | 20.27
16.43 K, Crystal 1, Small (less than 1 g) adiabatic calorimetry | 18.21
16.76 K, Crystal 1, Small (less than 1 g) adiabatic calorimetry | 18.95
17.73 K, Crystal 2, Small (less than 1 g) adiabatic calorimetry | 23.69
18.05 K, Crystal 1, Small (less than 1 g) adiabatic calorimetry | 21.6
18.4 K, Crystal 1, Small (less than 1 g) adiabatic calorimetry | 22.4
19.39 K, Crystal 2, Small (less than 1 g) adiabatic calorimetry | 27.53
19.84 K, Crystal 1, Small (less than 1 g) adiabatic calorimetry | 25.4
20 K, Crystal 1, Vacuum adiabatic calorimetry | 25.75
20 K, Crystal 2, Vacuum adiabatic calorimetry | 28.93
20.07 K, Crystal 1, Small (less than 1 g) adiabatic calorimetry | 25.94
21.11 K, Crystal 2, Small (less than 1 g) adiabatic calorimetry | 31.48
21.53 K, Crystal 1, Small (less than 1 g) adiabatic calorimetry | 29.12
21.58 K, Crystal 1, Small (less than 1 g) adiabatic calorimetry | 29.19
22.83 K, Crystal 2, Small (less than 1 g) adiabatic calorimetry | 35.46
23.05 K, Crystal 1, Small (less than 1 g) adiabatic calorimetry | 32.44
23.28 K, Crystal 1, Small (less than 1 g) adiabatic calorimetry | 32.87
24.53 K, Crystal 2, Small (less than 1 g) adiabatic calorimetry | 39.3
24.67 K, Crystal 1, Small (less than 1 g) adiabatic calorimetry | 35.93
24.93 K, Crystal 1, Small (less than 1 g) adiabatic calorimetry | 36.45
26.2 K, Crystal 2, Small (less than 1 g) adiabatic calorimetry | 43.02
26.34 K, Crystal 1, Small (less than 1 g) adiabatic calorimetry | 39.52
26.69 K, Crystal 1, Small (less than 1 g) adiabatic calorimetry | 40.25
27.89 K, Crystal 2, Small (less than 1 g) adiabatic calorimetry | 47.05
27.96 K, Crystal 1, Small (less than 1 g) adiabatic calorimetry | 43.27
28.5 K, Crystal 1, Small (less than 1 g) adiabatic calorimetry | 44.43
29.49 K, Crystal 1, Small (less than 1 g) adiabatic calorimetry | 46.73
29.58 K, Crystal 2, Small (less than 1 g) adiabatic calorimetry | 50.91
30 K, Crystal 1, Vacuum adiabatic calorimetry | 47.75
30 K, Crystal 2, Vacuum adiabatic calorimetry | 51.82
30.38 K, Crystal 1, Small (less than 1 g) adiabatic calorimetry | 48.59
30.97 K, Crystal 1, Small (less than 1 g) adiabatic calorimetry | 49.89
31.27 K, Crystal 2, Small (less than 1 g) adiabatic calorimetry | 54.58
32.25 K, Crystal 1, Small (less than 1 g) adiabatic calorimetry | 52.59
32.3 K, Crystal 1, Small (less than 1 g) adiabatic calorimetry | 52.61
32.73 K, Crystal 2, Small (less than 1 g) adiabatic calorimetry | 57.73
33.42 K, Crystal 1, Small (less than 1 g) adiabatic calorimetry | 55.02
34.08 K, Crystal 2, Small (less than 1 g) adiabatic calorimetry | 60.65
34.18 K, Crystal 1, Small (less than 1 g) adiabatic calorimetry | 56.62
34.66 K, Crystal 1, Small (less than 1 g) adiabatic calorimetry | 57.7
35.58 K, Crystal 2, Small (less than 1 g) adiabatic calorimetry | 63.81
35.96 K, Crystal 1, Small (less than 1 g) adiabatic calorimetry | 60.42
36.15 K, Crystal 1, Small (less than 1 g) adiabatic calorimetry | 60.78
37.11 K, Crystal 2, Small (less than 1 g) adiabatic calorimetry | 67
37.29 K, Crystal 1, Small (less than 1 g) adiabatic calorimetry | 63.17
38.18 K, Crystal 1, Small (less than 1 g) adiabatic calorimetry | 64.88
38.66 K, Crystal 1, Small (less than 1 g) adiabatic calorimetry | 65.91
38.66 K, Crystal 2, Small (less than 1 g) adiabatic calorimetry | 70.19
40 K, Crystal 1, Vacuum adiabatic calorimetry | 68.45
40 K, Crystal 2, Vacuum adiabatic calorimetry | 72.67
40.05 K, Crystal 1, Small (less than 1 g) adiabatic calorimetry | 68.62
40.1 K, Crystal 2, Small (less than 1 g) adiabatic calorimetry | 72.86
40.24 K, Crystal 1, Small (less than 1 g) adiabatic calorimetry | 68.92
41.44 K, Crystal 2, Small (less than 1 g) adiabatic calorimetry | 75.41
41.46 K, Crystal 1, Small (less than 1 g) adiabatic calorimetry | 71.35
42.21 K, Crystal 1, Small (less than 1 g) adiabatic calorimetry | 72.67
42.84 K, Crystal 2, Small (less than 1 g) adiabatic calorimetry | 78.05
42.89 K, Crystal 1, Small (less than 1 g) adiabatic calorimetry | 74.07
44.12 K, Crystal 1, Small (less than 1 g) adiabatic calorimetry | 76.27
44.27 K, Crystal 2, Small (less than 1 g) adiabatic calorimetry | 80.76
44.33 K, Crystal 1, Small (less than 1 g) adiabatic calorimetry | 76.76
45.76 K, Crystal 2, Small (less than 1 g) adiabatic calorimetry | 83.54
45.77 K, Crystal 1, Small (less than 1 g) adiabatic calorimetry | 79.44
46.11 K, Crystal 1, Small (less than 1 g) adiabatic calorimetry | 79.97
47.22 K, Crystal 1, Small (less than 1 g) adiabatic calorimetry | 82.08
47.31 K, Crystal 2, Small (less than 1 g) adiabatic calorimetry | 86.36
48.17 K, Crystal 1, Small (less than 1 g) adiabatic calorimetry | 83.7
48.67 K, Crystal 1, Small (less than 1 g) adiabatic calorimetry | 84.74
48.88 K, Crystal 2, Small (less than 1 g) adiabatic calorimetry | 89.17
50 K, Crystal 1, Vacuum adiabatic calorimetry | 86.93
50 K, Crystal 2, Vacuum adiabatic calorimetry | 91.14
50.13 K, Crystal 1, Small (less than 1 g) adiabatic calorimetry | 87.32
50.27 K, Crystal 1, Small (less than 1 g) adiabatic calorimetry | 87.41
50.47 K, Crystal 2, Small (less than 1 g) adiabatic calorimetry | 91.97
51.6 K, Crystal 1, Small (less than 1 g) adiabatic calorimetry | 89.81
52.07 K, Crystal 2, Small (less than 1 g) adiabatic calorimetry | 94.74
52.41 K, Crystal 1, Small (less than 1 g) adiabatic calorimetry | 91.07
53.06 K, Crystal 1, Small (less than 1 g) adiabatic calorimetry | 92.27
53.69 K, Crystal 2, Small (less than 1 g) adiabatic calorimetry | 97.39
54.53 K, Crystal 1, Small (less than 1 g) adiabatic calorimetry | 94.7
54.59 K, Crystal 1, Small (less than 1 g) adiabatic calorimetry | 94.68
55.31 K, Crystal 2, Small (less than 1 g) adiabatic calorimetry | 100.11
56.01 K, Crystal 1, Small (less than 1 g) adiabatic calorimetry | 97.07
56.79 K, Crystal 1, Small (less than 1 g) adiabatic calorimetry | 98.21
56.94 K, Crystal 2, Small (less than 1 g) adiabatic calorimetry | 102.73
57.48 K, Crystal 1, Small (less than 1 g) adiabatic calorimetry | 99.44
58.59 K, Crystal 2, Small (less than 1 g) adiabatic calorimetry | 105.37
58.96 K, Crystal 1, Small (less than 1 g) adiabatic calorimetry | 101.75
58.97 K, Crystal 1, Small (less than 1 g) adiabatic calorimetry | 101.63
60 K, Crystal 1, Vacuum adiabatic calorimetry | 103.22
60 K, Crystal 2, Vacuum adiabatic calorimetry | 107.66
60.24 K, Crystal 2, Small (less than 1 g) adiabatic calorimetry | 108.04
60.44 K, Crystal 1, Small (less than 1 g) adiabatic calorimetry | 104.07
61.09 K, Crystal 1, Small (less than 1 g) adiabatic calorimetry | 104.91
61.9 K, Crystal 2, Small (less than 1 g) adiabatic calorimetry | 110.62
